Here are results for four compounds from patent publication US9957273B2, “5-substituted 7- [4-(2-pyridyl)phenylmethylamino] -3-isopropylpyrazolo4,3-D]pyrimidine derivatives, use thereof as medicaments, and pharmaceutical compositions” (USTAV EXPERIMENTALNI BOTANIKY AV CR, V.V.I., priority 2015, dated 2018).

Experiment [1] has as its target T1, CDK5/p35 (Homo sapiens, UniProt Q00535).
T1 construct: purchased ProQinase GmbH
In words: CDK5/p35 kinase inhibition (33P-ATP, histone H1). Format: biochemical. Particulars: 0.15 μM ATP. As for the experimental part: CDK2/Cyclin E kinase was produced in Sf9 insect cells via baculoviral infection and purified on a NiNTA column (Qiagen). […] CDK5/p35 was purchased from ProQinase GmbH.
(§1) The reactions were stopped by adding 5 μL of 3% aq H3PO4. Aliquots were spotted onto P-81 phosphocellulose (Whatman), washed 3× with 0.5% aq H3PO4 and finally air-dried.

Experiment [2] has as its system K562 (human chronic myelogenous leukaemia). In words: MTT cytotoxicity assay, leukemic cell line K562. Format: cell-based. Particulars: Homo sapiens, K562, 72 h, three days. An excerpt: (§2) Cytotoxicity of the compounds is the major property determining their antileukemic efficacy in vivo. One of the parameters used, as the basis for cytotoxicity assays, is the metabolic activity of viable cells. For example, a microtiter assay, which uses (3-(4,5-dimethylthiazol-2-yl)-2,5-diphenyltetrazolium bromide (MTT), is widely used to quantitate cell proliferation and cytotoxicity. This assay is widely used in drug screening programs and in chemosensitivity testing. Because only metabolically active living cells reduce MTT to correspond purple formazan dye, these assays detect viable cells exclusively. The quantity of reduced MTT corresponds to the number of vital cells in the culture.
(§3) The compounds were assayed using the following leukemic cell lines: K562 (human chronic myelogenous leukaemia), HL60 (human promyelocytic leukaemia), CEM (human lymphoblastoid leukaemia), THP1 (human monocytic cell line), MV4; 11 (acute myelocytic leukemia). All cell lines were grown in RPMI medium supplemented with fetal bovine serum and L-glutamine and maintained at 37° C. in a humidified atmosphere with 5% CO2. For cytotoxicity assays, 2000-5000 cells were seeded into each well of 96 well plate, allowed to stabilize for at least 8 h and then tested compounds were added at various concentrations ranging from 100 to 0.01 μM in triplicates. After three days, MTT solution (5 mg/ml; Sigma, St. Louis, USA) was added to cells and medium was replaced with DMSO after five hours. The absorbance was measured at 620 nm by employing a microplate reader. MTT assays were repeated 3 times for each drug application and untreated cells were used as reference.
A general note: Tetrazolium dyes change colour on reduction, which living cells bring about.

In experiment [3] the test system is PANC-1 (pancreatic carcinoma). Kind of experiment: MTT cytotoxicity assay, solid cancer cell line PANC-1. Format: cell-based. Particulars: Homo sapiens, PANC-1, 72 h, three days. As for the experimental part: as §3, with “following” for “following leukemic”, “G361 (malignant melanoma), MCF7 (breast adenocarcinoma), PLC/PRF/5 (liver hepatoma), PANC-1 (pancreatic carcinoma) and HCT116 (colon carcinoma).” for “K562 (human chronic myelogenous leukaemia), HL60 (human promyelocytic leukaemia), CEM (human lymphoblastoid leukaemia), THP1 (human monocytic cell line), MV4; 11 (acute myelocytic leukemia).”, “DMEM” for “RPMI”, “4000-10000” for “2000-5000”, “of a” for “of”, “16” for “8”

Experiment [4] concerns THP1 (human monocytic cell line). In words: MTT cytotoxicity assay, leukemic cell line THP1. Format: cell-based. Particulars: Homo sapiens, THP-1, 72 h, three days.
Excerpt: as §2, §3

Experiment [5] deals with HL60 (human promyelocytic leukaemia). Kind of experiment: MTT cytotoxicity assay, leukemic cell line HL60. Format: cell-based. The following applies: Homo sapiens, HL-60, 72 h, three days.
Excerpt: as §2, §3

For experiment [6], the system named is MCF7 (breast adenocarcinoma). Kind of experiment: MTT cytotoxicity assay, solid cancer cell line MCF7. Format: cell-based. Particulars: Homo sapiens, MCF7, 72 h, three days. Here is the method: as §3, with “following” for “following leukemic”, “G361 (malignant melanoma), MCF7 (breast adenocarcinoma), PLC/PRF/5 (liver hepatoma), PANC-1 (pancreatic carcinoma) and HCT116 (colon carcinoma).” for “K562 (human chronic myelogenous leukaemia), HL60 (human promyelocytic leukaemia), CEM (human lymphoblastoid leukaemia), THP1 (human monocytic cell line), MV4; 11 (acute myelocytic leukemia).”, “DMEM” for “RPMI”, “4000-10000” for “2000-5000”, “of a” for “of”, “16” for “8”

Experiment [7] concerns HUVECs (human umbilical vein endothelial cells). In words: HUVEC migration (scratch) assay. Format: cell-based. The following applies: 16 h, read-out: Inhibition of migration (EC50). Here is the method: (§4) To verify that novel compounds have anti-vascularisation properties, we analyzed their influence on the proliferation and migration of HUVECs. HUVECs (human umbilical vein endothelial cells) were purchased from Promocell (Heidelberg, Germany) and cultured in endothelial cell growth medium (ECGM, Promocell, Heidelberg, Germany) containing 10% FCS (Biochrom, Berlin, Germany). Experiments were performed using cells at passage 3.
For migration assay, confluent HUVECs were scratched with a pipette tip and immediately treated with either starvation medium M199 (serum-free, negative control; PAN Biotech) or full endothelial cell growth medium (positive control). After 16 h, cells were fixed with 3% formaldehyde and images were taken using the TILLvisON system (Lochham, Germany) connected to an Axiovert 200 microscope (Zeiss, Germany). Evaluation of pictures was made by S.CO LifeScience (Garching, Germany). Migration was quantified as the ratio of the area covered with cells and the area of the cell free wound.

The subject of experiment [8] is PLC/PRF/5 (liver hepatoma). Kind of experiment: MTT cytotoxicity assay, solid cancer cell line PLC/PRF/5. Format: cell-based. Particulars: Homo sapiens, PLC-PRF-5, 72 h, three days. As for the experimental part: as §3, with “following” for “following leukemic”, “G361 (malignant melanoma), MCF7 (breast adenocarcinoma), PLC/PRF/5 (liver hepatoma), PANC-1 (pancreatic carcinoma) and HCT116 (colon carcinoma).” for “K562 (human chronic myelogenous leukaemia), HL60 (human promyelocytic leukaemia), CEM (human lymphoblastoid leukaemia), THP1 (human monocytic cell line), MV4; 11 (acute myelocytic leukemia).”, “DMEM” for “RPMI”, “4000-10000” for “2000-5000”, “of a” for “of”, “16” for “8”

Experiment [9] deals with MV4;11 (acute myelocytic leukemia). In words: MTT cytotoxicity assay, leukemic cell line MV4;11. Format: cell-based. Particulars: Homo sapiens, MV4-11, 72 h, three days.
Excerpt: as §2, §3

Experiment [10] has as its system G361 (malignant melanoma). In words: MTT cytotoxicity assay, solid cancer cell line G361. Format: cell-based. The following applies: Homo sapiens, G-361, 72 h, three days. Here is the method:
as §3, with “following” for “following leukemic”, “G361 (malignant melanoma), MCF7 (breast adenocarcinoma), PLC/PRF/5 (liver hepatoma), PANC-1 (pancreatic carcinoma) and HCT116 (colon carcinoma).” for “K562 (human chronic myelogenous leukaemia), HL60 (human promyelocytic leukaemia), CEM (human lymphoblastoid leukaemia), THP1 (human monocytic cell line), MV4; 11 (acute myelocytic leukemia).”, “DMEM” for “RPMI”, “4000-10000” for “2000-5000”, “of a” for “of”, “16” for “8”

Experiment [11] concerns CEM (human lymphoblastoid leukaemia). Kind of experiment: MTT cytotoxicity assay, leukemic cell line CEM. Format: cell-based. The following applies: Homo sapiens, 72 h, three days.
Excerpt: as §2, §3

Experiment [12] relates to HUVECs (human umbilical vein endothelial cells). In words: HUVEC proliferation assay (crystal violet). Format: cell-based. Particulars: Homo sapiens, HUVEC, 72 h, read-out: Inhibition of proliferation (EC50). Here is the method: as §4
For proliferation assay, 1.5×10^3 HUVECs were cultured for 24 h. Afterwards, cells were either left untreated or treated with novel compounds for 72 h. Proliferation assay was performed using crystal violet as described previously (Koltermann et al. 2007, Cell Mol. Life Sci. 64:1715-1722).

In experiment [13] the test system is HCT116 (colon carcinoma). In words: MTT cytotoxicity assay, solid cancer cell line HCT116. Format: cell-based. The following applies: Homo sapiens, HCT-116, 72 h, three days. As for the experimental part: as §3, with “following” for “following leukemic”, “G361 (malignant melanoma), MCF7 (breast adenocarcinoma), PLC/PRF/5 (liver hepatoma), PANC-1 (pancreatic carcinoma) and HCT116 (colon carcinoma).” for “K562 (human chronic myelogenous leukaemia), HL60 (human promyelocytic leukaemia), CEM (human lymphoblastoid leukaemia), THP1 (human monocytic cell line), MV4; 11 (acute myelocytic leukemia).”, “DMEM” for “RPMI”, “4000-10000” for “2000-5000”, “of a” for “of”, “16” for “8”

Experiment [14] concerns the target T2, CDK2/Cyclin E (Homo sapiens, UniProt P24941).
T2 construct: made in house; host or cells: Sf9 insect cells (baculovirus)
In words: CDK2/Cyclin E kinase inhibition (33P-ATP, histone H1). The following applies: 15 μM ATP. Format: biochemical. As for the experimental part: CDK2/Cyclin E kinase was produced in Sf9 insect cells via baculoviral infection and purified on a NiNTA column (Qiagen). The kinase reactions were assayed with 1 mg/mL histone H1 in the presence of 15 μM ATP, 0.05 μCi [γ-^33P]ATP and of the test compound in a final volume of 10 μL, all in a reaction buffer (60 mM HEPES-NaOH, pH 7.5, 3 mM MgCl2, 3 mM MnCl2, 3 μM Na-orthovanadate, 1.2 mM DTT, 2.5 μg/50 μl PEG20.000). CDK5/p35 was purchased from ProQinase GmbH. The kinase reactions were assayed with 1 mg/mL histone H1 in the presence of 0.15 μM ATP, 0.05 μCi [γ-^33P]ATP and of the test compound in a final volume of 10 μL, all in a reaction buffer (60 mM HEPES-NaOH, pH 7.5, 3 mM MgCl2, 3 mM MnCl2, 3 μM Na-orthovanadate, 1.2 mM DTT, 2.5 μg/50 μl PEG20.000).
as §1

T1 sequence (Q00535 whole entry): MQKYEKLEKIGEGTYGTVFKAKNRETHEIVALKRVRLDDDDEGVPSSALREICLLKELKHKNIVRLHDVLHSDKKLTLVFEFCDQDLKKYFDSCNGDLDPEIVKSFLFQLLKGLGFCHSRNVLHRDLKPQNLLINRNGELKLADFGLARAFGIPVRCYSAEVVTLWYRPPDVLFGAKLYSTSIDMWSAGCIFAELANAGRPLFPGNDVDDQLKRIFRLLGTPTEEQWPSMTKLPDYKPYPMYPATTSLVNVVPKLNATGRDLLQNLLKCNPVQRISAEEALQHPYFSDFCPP
T1 sequence (Q15078 whole entry partner): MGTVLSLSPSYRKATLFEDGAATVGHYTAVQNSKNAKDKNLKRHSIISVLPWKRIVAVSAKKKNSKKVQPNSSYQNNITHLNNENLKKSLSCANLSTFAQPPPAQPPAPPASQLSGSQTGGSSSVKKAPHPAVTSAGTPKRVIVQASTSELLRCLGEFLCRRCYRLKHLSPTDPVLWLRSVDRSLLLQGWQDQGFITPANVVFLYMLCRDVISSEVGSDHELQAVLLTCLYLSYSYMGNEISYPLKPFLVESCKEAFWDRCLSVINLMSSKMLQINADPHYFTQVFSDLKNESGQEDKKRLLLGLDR

The term IC50 denotes the concentration that gives 50% inhibition. High values mean lower potency, low ones higher potency. `CC(C)c1n[nH]c2c(NCc3ccc(-c4ccccn4)cc3)nc(S(C)(=O)=O)nc12` [Compound 7]: the IC50 in [1] stood at 0.165 µM; in experiment [2], 0.64 µM; in experiment [3], 1.56 µM; in experiment [4] it was 1.64 µM; in [5], 0.52 µM; in [6], 0.46 µM. Also, the IC50 in experiment [8] was 0.21 µM; in [9], 1.69 µM; in experiment [10] it was 0.43 µM; in [11] it was 0.93 µM; in experiment [13], 1.97 µM. The EC50 in experiment [7] came out at 550 nM; in experiment [12], 648 nM.

In the case of `CC(C)c1[nH]nc2c(NCc3ccc(-c4ccccn4)cc3)nc(N3CCNCC3)nc12` [Compound 13], the IC50 in [1] was 0.119 µM; in experiment [2], 0.02 µM; in [3], 0.06 µM; in [4] it was 0.03 µM; in experiment [5], 0.02 µM; in experiment [6], 0.02 µM. Moreover, the IC50 is 0.05 µM in [8]; 0.04 µM in experiment [9]; 0.02 µM in experiment [10]; 0.01 µM in experiment [11]; 0.03 µM in experiment [13]. Besides, the EC50 is 26 nM in experiment [7] and 9 nM in experiment [12].

For the compound `CC[C@H](CO)Nc1nc(NCc2ccc(-c3ccccn3)cc2)c2n[nH]c(C(C)C)c2n1` [Compound 83], the IC50 in experiment [14] was determined as 0.054 µM; in experiment [3] it was 0.02 µM; in experiment [4], 0.01 µM; in [5], 0.02 µM; in [6], 0.05 µM; in experiment [8] it was 0.02 µM. For the same compound, the 50% inhibitory concentration (IC50) in experiment [9] worked out at 0.07 µM; in experiment [10], 0.04 µM; in experiment [11], 0.06 µM; in experiment [13] it was 0.03 µM. Also, the figures for the EC50 in experiment [7] and in experiment [12] were 39 nM and 34 nM, respectively.

For `CC(C)c1[nH]nc2c(NCc3ccc(-c4ccccn4)cc3)nc(NC[C@@H](C)O)nc12` [Compound 27], the IC50 in [14] turned out to be 0.021 µM; in [2], 0.06 µM; in experiment [3] it was 0.07 µM; in experiment [4] it was 0.03 µM; in experiment [5], 0.02 µM; in [6] it was 0.03 µM. For the same compound, the half-inhibitory concentration (IC50) was 0.04 µM in experiment [8]; 0.06 µM in [9]; 0.08 µM in experiment [10]; 0.01 µM in [11]; 0.1 µM in [13]. The EC50 in [7] came to 35 nM; in experiment [12], 33 nM.
